Literature values, collected in patent publication US20210017202A1, “SPHINGOMYELIN-DERIVED LIPID AND METHOD FOR PRODUCING SAME” (NOF CORPORATION, priority 2018, published 2021).

Settings: liposome with cholesterol

Molecule | amount hydrolyzed (aqueous solution at pH2, 4 hr) | amount of hydrolysate (aqueous solution at pH2, after 20 hr)
CCCCCCCCCCCCCCCCCC(=O)OC[C@H](COP(=O)([O-])OCC[N+](C)(C)C)OC(=O)CCCCCCCCCCCCCCCCC [distearoylglycerophosphocholine] | about 40% | 
sphingomyelin |  | less than 5%
